# In PMC4467886 (Archives of biochemistry and biophysics, 2008):
# Target: T1, 5,10-methenyltetrahydrofolate synthetase (MTHFS) (Mus musculus, UniProt Q9D110)
# T1 sequence (Q9D110 2-203): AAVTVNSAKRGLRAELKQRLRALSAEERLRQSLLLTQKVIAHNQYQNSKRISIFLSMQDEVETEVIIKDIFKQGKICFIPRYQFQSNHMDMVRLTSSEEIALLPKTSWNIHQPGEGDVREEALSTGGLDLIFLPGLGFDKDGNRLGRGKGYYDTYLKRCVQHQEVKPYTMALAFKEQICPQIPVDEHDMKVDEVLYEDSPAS
# Test: spectrophotometric MTHFS activity assay
# Format: biochemical
row,SMILES,Ki
1,Nc1nc2c(c(=O)[nH]1)C[C@@H](CCc1ccc(C(=O)N[C@@H](CCC(=O)O)C(=O)O)cc1)CN2 [Lometrexol],9 ± 3 µM
2,Nc1nc2c(c(=O)[nH]1)C[C@@H](CCc1ccc(C(=O)N[C@@H](CCC(=O)O)C(=O)O)s1)CN2 [LY309887],6 ± 1 µM
3,Nc1nc2[nH]cc(CCc3ccc(C(=O)N[C@@H](CCC(=O)O)C(=O)O)cc3)c2c(=O)[nH]1 [Pemetrexed],48 ± 11 µM
